Assay results: US11129782B2, “Derivatives of PPD useful for coloring hair and skin” (National University of Singapore, priority 2017, dated 2021)
pIC50: −log10 of the molar value.

What was measured:
[1] = test system: cysteine peptide (Ac-RFAACAA-COOH); assay: Direct Peptide Reactivity Assay, cysteine peptide; conditions: for % of Cysteine depletion, Avg / % of Cysteine depletion, Rep 2 / % of Cysteine depletion, Rep 3 / Reactivity Class: 1:10; for % of Cysteine depletion, Rep 1: peptide 0.02 mM : test chemical 0.2 mM (1:10); for Reactivity Class: cysteine
Procedure: For cysteine DPRA, an additional step was performed.
(§1) The mass spectrometric analysis was performed by use of a AB SCIEX QTRAP 5500 tandem mass spectrometry (MS/MS) system (AB SCIEX, Framingham, Mass., USA) operating in triple quadrupole positive mode (ESI+) equipped with an AB Sciex Turbo Ion Spray interface. Acquisition and analysis of data were performed with Analyst software ver. 1.6.2 (Applied Biosystems).

[2] = test system: lysine peptide (Ac-RFAAKAA-COOH); assay: Direct Peptide Reactivity Assay, lysine peptide; conditions: for % of Lysine depletion, Avg / % of Lysine depletion, Rep 2 / % of Lysine depletion, Rep 3 / Reactivity Class: 1:50; for % of Lysine depletion, Rep 1: peptide 0.02 mM : test chemical 1 mM (1:50); for Reactivity Class: lysine
Procedure: as §1

[3] = test system: HaCaT cells; assay: In vitro cell cytotoxicity (MTT) assay on HaCaT cells; assay type: cell-based, human
Description: HaCaT (human, adult, low calcium, high temperature, human adult skin keratinocytes) cells were obtained from the IMB (Institute of Medical Biology) Skin Cell Bank. Fetal bovine serum (FBS), Dulbecco's minimum essential medium (DMEM) and trypsin EDTA solution were purchased from GE healthcare life sciences, Utah. Penicillin/streptomycin, dimethyl sulfoxide (DMSO), and phosphate buffered saline (PBS) were from Fisher Scientific (Singapore). Para-phenylenediamine (PPD) was purchased from Sigma Aldrich (Singapore). PPD analogues such as Dimer, trimer, ethyl hexyl para-phenylenediamine (EHPPD), hexyl para-phenylenediamine (HPPD), Bandrowski base (BB) were synthesized in house.
Cell viability was essentially determined using the MTT assay as described in the literature. The HaCaT cells were grown in DMEM with 10% FBS and 1% penicillin/streptomycin. The cells in T-75 cm^2 culture flasks were incubated with 5% CO2 at 37° C. in a humidified incubator. The HaCaT cells were grown to expected confluency and then they were harvested by trypsinizing the cell with 0.25% trypsin/EDTA and incubated at 37° C. for 5 min to obtain the complete cell detachment. After the incubation, cell pellets were resuspended, and washed twice with 1×PBS. The cell suspension in 1×PBS was counted and adjusted to 1×10^5/mL. A HaCaT keratinocyte suspension (100 μL in 1×PBS) with a cell concentration of 1×10^5 cells/mL) and a test solution (100 μL in milli-Q water) were combined in each well of two 96-well plates. Test solutions with a desired concentration were prepared by serial dilutions of the stock solutions with 1×PBS.
For the cytotoxicity experiment, cells were seeded at a density of 5×10^3 in 200 ul of medium into each well of 96-well plates. Cells were seeded as three sets of four replicates for each concentration. After 24 h of incubation, the cells were washed with PBS and cultured for 72 h with 200 ul of 10% FBS containing DMEM medium, together with the different concentrations of the test compounds ranging from 500 μM to 1.9 μM for PPD and analogues 1-5 and standard in a serial dilution. Then the medium was removed and 100 μl of MTT [3-(4,5-dimethylthiazol-2yl)-2,5-diphenyl-2H-tetrazolium bromide](1 mg/ml) (Alfa Aesar, Singapore) in PBS was added. At the end of 4 h incubation, the plates were removed from the incubator and plates were shaken for 5 min. The absorbance at 570 nm was determined using Bio-Tek plate reader. The cell viability rates were calculated from absorbance readings and represented as percentages of control value (untreated cells).

[4] = test system: cysteine and lysine peptides; assay: Direct Peptide Reactivity Assay, mean of cysteine and lysine depletion (FIG. 12); conditions: for Sensitizing potential predicted from mean peptide depletion: cysteine 1:10 / lysine 1:50 model
[5] = Skin permeation in vertical Franz diffusion cells; assay type: in vitro ADME, porcine; conditions: 8 h; for Skin permeation (in words): porcine skin
Procedure: Porcine ears were generously provided by the NUS Department of Surgery. The ears were frozen at −80° C. until use (up to 3 months) and thawed at room temperature on the day preceding the experiment. Prior to the experiment, the skin was separated from the cartilage and dermatomed to a thickness of ˜1.0 mm using an Acculan™ 3Ti dermatome (Aesculap, Inc., B. Braun, USA).
The PPD and derivatives were dissolved in deionized water at 1% w/v. The PPD and PPD derivatives 1-5 solutions were purged with argon gas to minimize oxidation of the donor solution.
Skin penetration studies were carried out using vertical Franz diffusion cells (PermeGear, USA) immersed in a 37° C. water bath. The donor and receptor volumes were 900 µL and 5 mL, respectively; the mean surface area of penetration was 0.64 cm^2. Upon insertion of the skin pieces into the Franz cells, the skin was equilibrated for 45 min with PBS in the receptor compartment. After equilibration, the skin's trans-epidermal water loss (TEWL) was measured using an Aquaflux AF300 (Biox, UK) to assess the integrity of the skin's stratum corneum barrier. The donor solution, consisting of PPD or derivative 1-5 (n=3 Franz cells each), was then added to the donor compartment and the penetration experiments were conducted for 8 h. The receptor solutions were continuously stirred with magnetic stirrers. At fixed time points, aliquots of 200 μL were taken from the receptor solution of each cell and the receptor solution topped up with 200 μL of fresh PBS. At the end of the experiment, the donor and receptor solutions were removed and the cells dismantled. For the purpose of mass balance on the PPD, PPD derivatives 1-5 the skin pieces and swabs of their outer surfaces were collected and stored in acetonitrile for PPD or derivative 1-5 extraction. The donor solution as well as PBS used to thoroughly wash each part of the Franz cells were also collected.
PPD, PPD derivatives 1-5 and metabolite concentrations in all permeation and mass balance samples were measured by LCMS. PPD steady state fluxes and permeability coefficients were calculated by fitting the solution to Fick's second law of diffusion at the steady state to the linear part of each experimental cumulative amount curve.
The validated method LCMS was applied to quantify PPD, PPD derivative 1-5 and metabolites from skin permeation study samples. FIGS. 3 and 4 show LCMS spectra for the identification of PPD and PPD derivatives 1 and 2 and metabolites from skin permeation study experiment.

[6] = Homo sapiens, HaCaT, 72 h, 72 h incubation, MTT

With `OC[C@H]1O[C@@H](O[C@H]2[C@H](O)[C@@H](O)C(O)O[C@@H]2CO)[C@H](O)[C@@H](O)[C@H]1O` (stereo partly shown) [Lactose, reference compound] the “% of Cysteine depletion, Avg” value ([1]; 20 min) was 0%, the “% of Cysteine depletion, Rep 2” value ([1]; 20 min) was 0% and the “% of Cysteine depletion, Rep 3” value ([1]; 20 min) was 0%. The “% of Cysteine depletion, Rep 1” value ([1]; 20 min) was 0%, the “% of Cysteine depletion, Avg” value ([1]; 24 h) was 0.6% and the “% of Cysteine depletion, Rep 2” value ([1]; 24 h) was 1%. For the same molecule, the “% of Cysteine depletion, Rep 3” value ([1]; 24 h) was 1%, the “% of Cysteine depletion, Rep 1” value ([1]; 24 h) was 0% and the “Reactivity Class” value ([1]; 20 min) was “No or Minimal”. For the same molecule, the “Reactivity Class” value ([1]; 24 h) was “No or Minimal”, the “% of Lysine depletion, Avg” value ([2]; 20 min) was 0% and the “% of Lysine depletion, Rep 2” value ([2]; 20 min) was 0%. For the same molecule, the “% of Lysine depletion, Rep 3” value ([2]; 20 min) was 0%, the “% of Lysine depletion, Rep 1” value ([2]; 20 min) was 0% and the “% of Lysine depletion, Avg” value ([2]; 24 h) was 0%. The “% of Lysine depletion, Rep 2” value ([2]; 24 h) was 0%, the “% of Lysine depletion, Rep 3” value ([2]; 24 h) was 0% and the “% of Lysine depletion, Rep 1” value ([2]; 24 h) was 0%. The “Reactivity Class” value ([2]; 20 min) was “No or Minimal” and the “Reactivity Class” value ([2]; 24 h) was “No or Minimal”.

`CC(C)(C)c1cc(O)ccc1O` [Tertbutylhydroquinone, reference compound] showed a pIC50 [3, 6] of 4.55.

For `O=C1C=CC(=O)C=C1` [p-Benzoquinone, p-benzoquinone, reference compound], the “% of Cysteine depletion, Avg” value ([1]; 20 min) was 72.8%, the “% of Cysteine depletion, Rep 2” value ([1]; 20 min) was 73.7% and the “% of Cysteine depletion, Rep 3” value ([1]; 20 min) was 72.0%. For the same molecule, the “% of Cysteine depletion, Rep 1” value ([1]; 20 min) was 72.7%, the “% of Cysteine depletion, Avg” value ([1]; 24 h) was 89.7% and the “% of Cysteine depletion, Rep 2” value ([1]; 24 h) was 89.5%. The “% of Cysteine depletion, Rep 3” value ([1]; 24 h) was 90%, the “% of Cysteine depletion, Rep 1” value ([1]; 24 h) was 89.6% and the “Reactivity Class” value ([1]; 20 min) was “High”. For the same molecule, the “Reactivity Class” value ([1]; 24 h) was “High”, the “% of Lysine depletion, Avg” value ([2]; 20 min) was 21.0% and the “% of Lysine depletion, Rep 2” value ([2]; 20 min) was 20.6%. The “% of Lysine depletion, Rep 3” value ([2]; 20 min) was 20%, the “% of Lysine depletion, Rep 1” value ([2]; 20 min) was 22.5% and the “% of Lysine depletion, Avg” value ([2]; 24 h) was 88.7%. For the same molecule, the “% of Lysine depletion, Rep 2” value ([2]; 24 h) was 87.5%, the “% of Lysine depletion, Rep 3” value ([2]; 24 h) was 91.6% and the “% of Lysine depletion, Rep 1” value ([2]; 24 h) was 87.0%. The “Reactivity Class” value ([2]; 20 min) was “Low” and the “Reactivity Class” value ([2]; 24 h) was “High”.

With `CCCCCCNc1ccc(N)cc1OCCCCCC` [PPD derivative 16, (N^1-hexyl)(2-hexyloxy)-1,4-diaminobenzene] the pIC50 ([3]; 72 h incubation, MTT) was 3.86 and the “Sensitizing potential predicted from mean peptide depletion” value [4] was “moderate sensitizer”.

For `Cc1ccc(NCc2ccc(Nc3ccc(Nc4ccc(N)cc4)cc3)cc2)cc1` [PPD derivative 10, N^1-[4-(4-tolylaminomethyl)phenyl]-N^4-(4-aminophenyl)-1,4-benzenediamine], the pIC50 [3, 6] was 5.74, the “Sensitizing potential predicted from mean peptide depletion” value [4] was “weak sensitizer” and the Mean peptide depletion ([4]; mean of cysteine (1:10) and lysine (1:50), FIG. 12) was 23.0%.

In the case of `O=[N+]([O-])c1ccc(CNc2ccc(Nc3ccc(NCc4ccc([N+](=O)[O-])cc4)cc3)cc2)cc1` [PPD derivative 11, N^4-[(4-nitrophenyl)methyl]-N^1-[4-[(4-nitrophenyl)methylamino]phenyl]-benzene-1,4-diamine], the pIC50 [3, 6] was 5.19.

In the case of `CCCCCCOc1cc(Nc2ccc(N)cc2)ccc1N` [PPD derivative 5, 4-Amino-(3-hexyloxy)-4′-aminodiphenylamine], the “% Parent compound Penetrated (mean)” value ([5]; 1% W/V applied) was 0%, the “% Parent compound Recovery (mean)” value ([5]; 1% W/V applied) was 98% and the “% converted to metabolite (mean)” value ([5]; 1% W/V applied) was 0.0118%. For the same molecule, the “Skin permeation (in words)” value [5] was “did not permeate the skin at all”, the “Skin permeation (in words)” value ([5]; listed as PPD 5) was “impermeable” and the pIC50 ([3]; 72 h incubation, MTT) was 4.84. For the same molecule, the “% of Cysteine depletion, Avg” value ([1]; 20 min) was 51.2%, the “% of Cysteine depletion, Rep 2” value ([1]; 20 min) was 52.9% and the “% of Cysteine depletion, Rep 3” value ([1]; 20 min) was 49.9%. For the same molecule, the “% of Cysteine depletion, Rep 1” value ([1]; 20 min) was 50.9%, the “% of Cysteine depletion, Avg” value ([1]; 24 h) was 53.8% and the “% of Cysteine depletion, Rep 2” value ([1]; 24 h) was 53.8%. The “% of Cysteine depletion, Rep 3” value ([1]; 24 h) was 54.1%, the “% of Cysteine depletion, Rep 1” value ([1]; 24 h) was 53.5% and the “% of Lysine depletion, Avg” value ([2]; 20 min) was 6.3%. For the same molecule, the “% of Lysine depletion, Rep 2” value ([2]; 20 min) was 5.92%, the “% of Lysine depletion, Rep 3” value ([2]; 20 min) was 6.2% and the “% of Lysine depletion, Rep 1” value ([2]; 20 min) was 6.76%. The “% of Lysine depletion, Avg” value ([2]; 24 h) was 14.3%, the “% of Lysine depletion, Rep 2” value ([2]; 24 h) was 15.2% and the “% of Lysine depletion, Rep 3” value ([2]; 24 h) was 13.8%. The “% of Lysine depletion, Rep 1” value ([2]; 24 h) was 13.8%, the “Reactivity Class” value ([2]; 20 min) was “No or Minimal” and the “Reactivity Class” value ([2]; 24 h) was “Low”.

With `CCOC(=O)/C=C\C(=O)OCC` [Diethylmaleate, reference compound] the pIC50 [3, 6] was < 4.00.

For `CC1=CC(=O)c2ccccc2C1=O` [Menadione, reference compound], the pIC50 [3, 6] was 5.45.

Molecule `COc1ccc(CNc2ccc(Nc3ccc(NCc4ccc(OC)cc4)cc3)cc2)cc1` [PPD derivative 12] has a pIC50 [3, 6] of 5.37.

`Cc1ccc(CNc2ccc(Nc3ccc(NCc4ccc(C)cc4)cc3)cc2)cc1` [PPD derivative 13, N^4-(p-tolylmethyl)-N^1-[4-(p-tolylmethylamino)phenyl]benzene-1,4-diamine] showed a pIC50 [3, 6] of 5.28.

With `CCC(C)(C)C(=O)O[C@H]1C[C@@H](C)C=C2C=C[C@H](C)[C@H](CC[C@@H]3C[C@@H](O)CC(=O)O3)[C@H]21` [Simvastatin, reference compound] the pIC50 ([3]; Homo sapiens, HaCaT) was 5.04 and the pIC50 [3, 6] was 4.54.

`Oc1ccc(CNc2ccc(Nc3ccc(NCc4ccc(O)cc4)cc3)cc2)cc1` [PPD derivative 14, 4-[[4-[4-[(4-hydroxyphenyl)methylamino]anilino]anilino]methyl]phenol] gave a pIC50 [3, 6] of 5.27.

In the case of `COc1cccc2c1C(=O)c1c(O)c3c(c(O)c1C2=O)C[C@@](O)(C(=O)CO)C[C@@H]3O[C@H]1C[C@H](N)[C@H](O)[C@H](C)O1` [Doxorubicin, reference compound], the pIC50 [3, 6] was > 6.41.
